In this assay the target is T1, human GLP-1 receptor (Homo sapiens, UniProt P43220).
T1 construct: expressed in transfected cells; host or cells: membranes of BHK cells (parent BHKTS13), clone FCW467-12A
In words: Assay (II)(a) GLP-1 receptor binding, 125I-GLP-1 displacement SPA on BHK membranes. Particulars: without presence of serum albumin; read-out: GLP-1R IC50 (nM) [Assay (II)(a)]. Summed up:
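Membranes from BHK cells (clone FCW467-12A) stably expressing human GLP-1R were incubated with serially diluted compounds (8×10EE-13 to 8×10EE-7 M before addition) and [125I]-GLP-1-(7-36)NH2 with WGA SPA beads, 2 h at 30° C, pH 7.4. IC50 taken from displacement by non-linear regression. Run at ≤0.001% or 2.0% final serum albumin.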

Each structure is given as a SMILES string. Starred links: 1 amine or outer side, 2 acyl side, 3 side chain; linkers in the order of their positions; H or OH if unused. Non-standard residues stand in square brackets, D forms with d. Residues, ends and D or L forms follow the SMILES beside them. Groups on a side chain read outwards from the residue. *: point of attachment. C18 diacid = O=C(O)CCCCCCCCCCCCCCCCC(=O)*; γGlu = O=C(O)[C@H](CCC(=O)[*:2])N[*:1]; Ac4c = NC1(C(=O)O)CCC1; AEEA = NCCOCCOCC(=O)O; Aib = CC(C)(N)C(=O)O

T1 sequence (P43220 24-463): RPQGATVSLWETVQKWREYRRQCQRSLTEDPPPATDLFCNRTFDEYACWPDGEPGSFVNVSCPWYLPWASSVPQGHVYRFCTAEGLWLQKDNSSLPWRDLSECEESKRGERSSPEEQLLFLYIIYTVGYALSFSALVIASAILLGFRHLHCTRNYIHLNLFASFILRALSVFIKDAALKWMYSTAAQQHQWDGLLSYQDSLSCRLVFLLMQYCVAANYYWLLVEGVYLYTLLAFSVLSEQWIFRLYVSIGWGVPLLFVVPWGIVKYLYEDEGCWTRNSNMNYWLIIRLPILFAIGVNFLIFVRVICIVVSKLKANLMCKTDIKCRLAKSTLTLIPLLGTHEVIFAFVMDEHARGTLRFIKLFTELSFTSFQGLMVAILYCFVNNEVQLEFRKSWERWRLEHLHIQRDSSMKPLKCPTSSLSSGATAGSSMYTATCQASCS

By IC50 is commonly meant the concentration that gives 50% inhibition. With `CC[C@H](C)[C@H](NC(=O)[C@H](CC(C)C)NC(=O)[C@H](Cc1c[nH]c2ccccc12)NC(=O)[C@H](CCC(N)=O)NC(=O)[C@@H](NC(=O)[C@H](Cc1ccccc1)NC(=O)[C@H](CCC(=O)O)NC(=O)[C@H](CCCNC(=N)N)NC(=O)[C@H](C)NC(=O)[C@H](CCCNC(=N)N)NC(=O)[C@H](CCCNC(=N)N)NC(=O)[C@H](CO)NC(=O)[C@H](CCC(=O)O)NC(=O)[C@H](CC(C)C)NC(=O)[C@H](Cc1ccc(O)cc1)NC(=O)[C@H](CCCCN)NC(=O)[C@H](CO)NC(=O)[C@H](CC(C)C)NC(=O)[C@H](CC(=O)O)NC(=O)[C@H](CO)NC(=O)[C@@H](NC(=O)[C@H](Cc1ccccc1)NC(=O)[C@@H](NC(=O)CNC(=O)[C@H](CCC(N)=O)NC(=O)C1(NC(=O)[C@@H](N)Cc2c[nH]cn2)CCC1)[C@@H](C)O)[C@@H](C)O)C(C)C)C(=O)N[C@@H](CCCCNC(=O)COCCOCCNC(=O)COCCOCCNC(=O)CC[C@H](NC(=O)CC[C@H](NC(=O)CCCCCCCCCCCCCCCCC(=O)O)C(=O)O)C(=O)O)C(=O)N[C@H](C(N)=O)[C@@H](C)O` [Chem. 18, N^ε28-[2-[2-[2-[[2-[2-[2-[[(4S)-4-carboxy-4-[[(4S)-4-carboxy-4-(17-carboxyheptadecanoylamino)butanoyl]amino]butanoyl]amino]ethoxy]ethoxy]acetyl]amino]ethoxy]ethoxy]acetyl]-[Acb2,Leu10,Glu15,Arg20,Glu21,Ile27,Lys28]-Glucagon amide] (H-H[Ac4c]QGTFTSDLSKYLESRRAREFVQWLIK([AEEA-AEEA-γGlu-γGlu-C18 diacid])T-NH2), the IC50 was 0.1 nM. With `CC[C@H](C)[C@H](NC(=O)[C@H](CC(C)C)NC(=O)[C@H](Cc1c[nH]c2ccccc12)NC(=O)[C@H](CCC(N)=O)NC(=O)[C@@H](NC(=O)[C@H](Cc1ccccc1)NC(=O)[C@H](CCC(=O)O)NC(=O)[C@H](CCCNC(=N)N)NC(=O)[C@H](C)NC(=O)[C@H](CCCNC(=N)N)NC(=O)[C@H](CCCNC(=N)N)NC(=O)[C@H](C)NC(=O)[C@H](CC(=O)O)NC(=O)[C@H](CC(C)C)NC(=O)[C@H](Cc1ccc(O)cc1)NC(=O)[C@H](CCCCN)NC(=O)[C@H](CO)NC(=O)[C@H](CC(C)C)NC(=O)[C@H](CC(=O)O)NC(=O)[C@H](CO)NC(=O)[C@@H](NC(=O)[C@H](Cc1ccccc1)NC(=O)[C@@H](NC(=O)CNC(=O)[C@H](CCC(N)=O)NC(=O)C(C)(C)NC(=O)[C@@H](N)Cc1c[nH]cn1)[C@@H](C)O)[C@@H](C)O)C(C)C)C(=O)N[C@@H](CC(N)=O)C(=O)N[C@@H](CCCCNC(=O)CC[C@H](NC(=O)CC[C@H](NC(=O)COCCOCCNC(=O)COCCOCCNC(=O)CC[C@H](NC(=O)CCCCCCCCCCCCCCCCC(=O)O)C(=O)O)C(=O)O)C(=O)O)C(N)=O` [Chem. 21, N^ε29-[(4S)-4-carboxy-4-[[(4S)-4-carboxy-4-[[2-[2-[2-[[2-[2-[2-[[(4S)-4-carboxy-4-(17-carboxyheptadecanoylamino)butanoyl]amino]ethoxy]ethoxy]acetyl]amino]ethoxy]ethoxy]acetyl]amino]butanoyl]amino]butanoyl]-[Aib2,Leu10,Ala16,Arg20,Glu21,Ile27,Lys29]-Glucagon amide] (H-H[Aib]QGTFTSDLSKYLDARRAREFVQWLINK([γGlu-γGlu-AEEA-AEEA-γGlu-C18 diacid])-NH2; N-terminus assumed), the IC50 worked out at 0.1 nM. Regarding `CC[C@H](C)[C@H](NC(=O)[C@H](CC(C)C)NC(=O)[C@H](Cc1c[nH]c2ccccc12)NC(=O)[C@H](CCC(N)=O)NC(=O)[C@@H](NC(=O)[C@H](Cc1ccccc1)NC(=O)[C@H](CC(=O)O)NC(=O)[C@H](CCCNC(=N)N)NC(=O)[C@H](C)NC(=O)[C@H](CCCNC(=N)N)NC(=O)[C@H](CCCNC(=N)N)NC(=O)[C@H](C)NC(=O)[C@H](CC(=O)O)NC(=O)[C@H](CC(C)C)NC(=O)[C@H](Cc1ccc(O)cc1)NC(=O)[C@H](CCCCN)NC(=O)[C@H](CO)NC(=O)[C@H](CC(C)C)NC(=O)[C@H](CC(=O)O)NC(=O)[C@H](CO)NC(=O)[C@@H](NC(=O)[C@H](Cc1ccccc1)NC(=O)[C@@H](NC(=O)CNC(=O)[C@H](CCC(N)=O)NC(=O)C(C)(C)NC(=O)[C@@H](N)Cc1c[nH]cn1)[C@@H](C)O)[C@@H](C)O)C(C)C)C(=O)N[C@@H](CC(N)=O)C(=O)N[C@@H](CCCCNC(=O)CC[C@H](NC(=O)CC[C@H](NC(=O)COCCOCCNC(=O)COCCOCCNC(=O)CC[C@H](NC(=O)CCCCCCCCCCCCCCCCC(=O)O)C(=O)O)C(=O)O)C(=O)O)C(N)=O` [Chem. 20, N^ε29-[(4S)-4-carboxy-4-[[(4S)-4-carboxy-4-[[2-[2-[2-[[2-[2-[2-[[(4S)-4-carboxy-4-(17-carboxyheptadecanoylamino)butanoyl]amino]ethoxy]ethoxy]acetyl]amino]ethoxy]ethoxy]acetyl]amino]butanoyl]amino]butanoyl]-[Aib2,Leu10,Ala16,Arg20,Ile27,Lys29]-Glucagon amide] (H-H[Aib]QGTFTSDLSKYLDARRARDFVQWLINK([γGlu-γGlu-AEEA-AEEA-γGlu-C18 diacid])-NH2; N-terminus assumed), the IC50 amounted to 0.1 nM. For `CC[C@H](C)[C@H](NC(=O)[C@H](CC(C)C)NC(=O)[C@H](Cc1c[nH]c2ccccc12)NC(=O)[C@H](CCC(N)=O)NC(=O)[C@@H](NC(=O)[C@H](Cc1ccccc1)NC(=O)[C@H](CC(=O)O)NC(=O)[C@H](CCCNC(=N)N)NC(=O)[C@H](C)NC(=O)[C@H](CCCNC(=N)N)NC(=O)[C@H](CCCNC(=N)N)NC(=O)[C@H](C)NC(=O)[C@H](CC(=O)O)NC(=O)[C@H](CC(C)C)NC(=O)[C@H](Cc1ccc(O)cc1)NC(=O)[C@H](CCCCN)NC(=O)[C@H](CO)NC(=O)[C@H](CC(C)C)NC(=O)[C@H](CC(=O)O)NC(=O)[C@H](CO)NC(=O)[C@@H](NC(=O)[C@H](Cc1ccccc1)NC(=O)[C@@H](NC(=O)CNC(=O)[C@H](CCC(N)=O)NC(=O)C(C)(C)NC(=O)[C@@H](N)Cc1c[nH]cn1)[C@@H](C)O)[C@@H](C)O)C(C)C)C(=O)N[C@@H](CO)C(=O)N[C@@H](CCCCNC(=O)CC[C@H](NC(=O)CC[C@H](NC(=O)COCCOCCNC(=O)COCCOCCNC(=O)CC[C@H](NC(=O)CCCCCCCCCCCCCCCCC(=O)O)C(=O)O)C(=O)O)C(=O)O)C(N)=O` [Chem. 27, N^ε29-[(4S)-4-carboxy-4-[[(4S)-4-carboxy-4-[[2-[2-[2-[[2-[2-[2-[[(4S)-4-carboxy-4-(17-carboxyheptadecanoylamino)butanoyl]amino]ethoxy]ethoxy]acetyl]amino]ethoxy]ethoxy]acetyl]amino]butanoyl]amino]butanoyl]-[Aib2,Leu10,Ala16,Arg20,Ile27,Ser28,Lys29]-Glucagon amide] (H-H[Aib]QGTFTSDLSKYLDARRARDFVQWLISK([γGlu-γGlu-AEEA-AEEA-γGlu-C18 diacid])-NH2; N-terminus assumed), the concentration for half-maximal inhibition (IC50) is 0.2 nM. Turning to `CC[C@H](C)[C@H](NC(=O)[C@H](CC(C)C)NC(=O)[C@H](Cc1c[nH]c2ccccc12)NC(=O)[C@H](CCC(N)=O)NC(=O)[C@@H](NC(=O)[C@H](Cc1ccccc1)NC(=O)[C@H](CC(=O)O)NC(=O)[C@H](CCCNC(=N)N)NC(=O)[C@H](C)NC(=O)[C@H](CCCNC(=N)N)NC(=O)[C@H](CCCNC(=N)N)NC(=O)[C@H](CO)NC(=O)[C@H](CCC(=O)O)NC(=O)[C@H](CC(C)C)NC(=O)[C@H](Cc1ccc(O)cc1)NC(=O)[C@H](CCCNC(=N)N)NC(=O)[C@H](CO)NC(=O)[C@H](Cc1ccc(O)cc1)NC(=O)[C@H](CC(=O)O)NC(=O)[C@H](CO)NC(=O)[C@@H](NC(=O)[C@H](Cc1ccccc1)NC(=O)[C@@H](NC(=O)CNC(=O)[C@H](CCC(N)=O)NC(=O)C(C)(C)NC(=O)[C@@H](N)Cc1c[nH]cn1)[C@@H](C)O)[C@@H](C)O)C(C)C)C(=O)N[C@@H](CCCCNC(=O)CC[C@H](NC(=O)COCCOCCNC(=O)CC[C@H](NC(=O)COCCOCCNC(=O)CC[C@H](NC(=O)COCCOCCNC(=O)CC[C@H](NC(=O)CC[C@H](NC(=O)CCCCCCCCCCCCCCCCC(=O)O)C(=O)O)C(=O)O)C(=O)O)C(=O)O)C(=O)O)C(=O)N[C@H](C(N)=O)[C@@H](C)O` [Chem. 37, N^28-[(4S)-4-carboxy-4-[[2-[2-[2-[[(4S)-4-carboxy-4-[[2-[2-[2-[[(4S)-4-carboxy-4-[[2-[2-[2-[[(4S)-4-carboxy-4-[[(4S)-4-carboxy-4-(17-carboxyheptadecanoylamino)butanoyl]amino]butanoyl]amino]ethoxy]ethoxy]acetyl]amino]butanoyl]amino]ethoxy]ethoxy]acetyl]amino]butanoyl]amino]ethoxy]ethoxy]acetyl]amino]butanoyl]-[Aib2,Arg12,Glu15,Arg20,Ile27,Lys28]-Glucagon amide] (H-H[Aib]QGTFTSDYSRYLESRRARDFVQWLIK([γGlu-AEEA-γGlu-AEEA-γGlu-AEEA-γGlu-γGlu-C18 diacid])T-NH2; N-terminus assumed), the IC50 was found to be 1.5 nM.

Source of the values: patent US10570184B2, “GLP-1/glucagon receptor co-agonists for medical use” (Novo Nordisk A/S, priority 2014, dated 2020).
